Measured values reported in patent US7253177B2, “Synthesis and antimalarial activity of pyrrolo[3,2-f]quinazoline-1,3-diamine derivatives” (United States of America as Represented by the Secretary of …, priority 2004, dated 2007).
Values after ≈ are worked out from the molar mass of the structure shown. Where two headings read alike, the source gives them in different places.

How the values were obtained:
P. berghei = conditions: rodent model; cited from earlier work
[1] = Aotus monkey; cited from earlier work
[2] = tested on: Plasmodium berghei (KBG-173 strain); format: in vivo; conditions: mice, oral
Method: (§1) B. Antimalarial Activities: (a). In Vitro Antimalarial Studies. The in vitro assays were conducted by using a modification of the semiautomated microdilution technique of Desjardins et al and Chulay et al.. Four P. falciparum malaria parasite clones, from CDC Indochina III (W-2), CDC Sierra Leone I (D-6), Southeast Asia Isolates (TM91C235) and RCS (Isolates from Brazil) were utilized in susceptibility testing. They were derived by direct visualization and micromanipulation from patient isolates. The W-2 clone is susceptible to mefloquine but resistant to chloroquine, sulfadoxine, pyrimethamine, and quinine, whereas the D-6 clone is naturally resistant to mefloquine but susceptible to chloroquine, sulfadoxine, pyrimethamine and quinine. Test compounds were initially dissolved in DMSO and diluted 400 fold in RPMI 1640 culture medium supplemented with 25 mM Hepes, 32 mM NaHCO3 and 10% Albumax I (Gibco BRL, Grand Island, N.Y.). These solutions were subsequently serially diluted two-fold with a Biomek 1000 (Beckman, Fullerton, Calif.) over 11 different concentrations. The parasites were exposed to serial dilutions of each compound for 48 hrs and incubated at 37° C. with 5% O2, 5% CO2 and 90% N2 prior to the addition of [^3H]hypoxanthine. After a further incubation of 18 hrs, parasite DNA was harvested from each microtiter well using Packard Filtermate 196 Harvester (Meriden, Conn.) onto glass filters. Uptake of [^3H]hypoxanthine was measured with a Packard Topcount Scintillation. Concentration-response data were analyzed by a non-linear regression logistic dose response model and the IC50 values (50% inhibitory concentrations) for each compound were calculated. (Table 3). (b). In Vivo Antimalarial Studies against P. berghei in mice: The in vivo efficacy of the artelinic acid analogs were determined in a modified Thompson test. This test measures the survivability of mice and parasitemia clearance following administration of drug on days 3-5 post infection. In brief, 5×10^6 P. berghei-infected erythrocytes (KBG-173 strain) were inoculated intraperitoneally to female mice that weighed 24-30 g. By day three post-infection, parasitemia ranged from 1.0-3.7%. Each drug, dissolved in 5% sodium bicarbonate, was administered PO twice daily from day 3-5 post-infection. Total doses for each drug ranged from 1.5-384 mg/kg with 8 mice included in each dosage group. The percent suppression of parasitemia in the treated mice compared to the untreated controls was determined for each test compound; the SD-50 (fifty percent suppression dose) and SD-90 were determined from a non-linear regression logistic dose response fit at day 6 parasitemia data. Survival of mice to day 60 post-infection was considered a cure (C). Compounds were considered active (A) when the survival time of the treated mice was greater than twice the control mice, i.e., 12-14 day (Table 4-5). (c). Sporozoite Induced Test Each compound is ground with a mortar & pestle and suspended in 0.5% hydroxyethylcellulose—0.1% Tween 80 for compounds to be administered PO and those given SC are suspended in peanut oil. Each compound is prepared at 3 different dose levels as requested by WRAIR. Compounds are administered either PO or SC to mice once 4 hr before inoculation of sporozoites. Four-week-old male CD-1 mice, purchased from Charles River and weighing 16-17 g, are placed 5 per cage and allowed to acclimate for 4 days before being treated and then inoculated with sporozoites. They are fed food and water ad-lib and maintained at 76° F. with 12 hr light and 12 hr darkness. The cages and water bottles are changed biweekly. The mice are weighed on Days 0, 3 and 6 then biweekly when blood films are taken. Plasmodium yoelii (17×) is used to infect mice that will be used to infect the mosquitoes. Mice are given a single dose of test compound 4 hr before being inoculated intraperitoneally with 2.5×10^5 sporozoites of Plasmodium yoelii on Day 0. […]

[3] = tested on: Plasmodium falciparum D-6 clone (CDC Sierra Leone I); assay: In vitro antimalarial study, [3H]hypoxanthine uptake, D-6 clone; format: cell-based; conditions: Plasmodium falciparum, read-out: IC50 D-6
Method: as §1

Plasmodium berghei = assay: Antimalarial activity against Plasmodium berghei in mice by subcutaneous injection; format: in vivo
[4] = tested on: Plasmodium falciparum TM91C235 (Southeast Asia Isolates); assay: In vitro antimalarial study, [3H]hypoxanthine uptake, TM91C235 clone; format: cell-based; conditions: Plasmodium falciparum, read-out: IC50 TM91C235
Method: as §1

[5] = mice; cited from earlier work
[6] = Death rates after single intragastric treatment in rats; format: in vivo; conditions: for Day of Death: number of deaths: rats
P. falciparum = conditions: background, reported; cited from earlier work
[7] = tested on: Plasmodium falciparum RCS (Isolates from Brazil); assay: In vitro antimalarial study, [3H]hypoxanthine uptake, RCS clone; format: cell-based; conditions: Plasmodium falciparum; P. falciparum RCS clone
Method: as §1

[8] = tested on: Plasmodium falciparum W-2 clone (CDC Indochina III); assay: In vitro antimalarial study, [3H]hypoxanthine uptake, W-2 clone; format: cell-based; conditions: Plasmodium falciparum, read-out: IC50 W-2
Method: as §1

[9] = Solubility in common organic solvents and water; format: physicochemical
[10] = tested on: D-6, RCS, W-2 and TM91C235 clones of Plasmodium falciparum; assay: In vitro tests against D-6, RCS, W-2 and TM91C235 clones; format: cell-based; conditions: sensitive and drug resistant P. falciparum cell lines
Method: B. Antimalarial Activities: (a). In Vitro Antimalarial Studies. The in vitro assays were conducted by using a modification of the semiautomated microdilution technique of Desjardins et al and Chulay et al.. Four P. falciparum malaria parasite clones, from CDC Indochina III (W-2), CDC Sierra Leone I (D-6), Southeast Asia Isolates (TM91C235) and RCS (Isolates from Brazil) were utilized in susceptibility testing. They were derived by direct visualization and micromanipulation from patient isolates. […] Uptake of [^3H]hypoxanthine was measured with a Packard Topcount Scintillation. Concentration-response data were analyzed by a non-linear regression logistic dose response model and the IC50 values (50% inhibitory concentrations) for each compound were calculated. […] In Vivo Antimalarial Studies against P. berghei in mice: The in vivo efficacy of the artelinic acid analogs were determined in a modified Thompson test. […] The percent suppression of parasitemia in the treated mice compared to the untreated controls was determined for each test compound; the SD-50 (fifty percent suppression dose) and SD-90 were determined from a non-linear regression logistic dose response fit at day 6 parasitemia data. […]

## Nc1nc(N)c2c(ccc3c2ccn3Cc2ccccc2C(F)(F)F)n1 [Compound 1, 7-[(2-Trifluoromethyl-phenyl)methyl]-7H-pyrrolo[3,2-f]quinazoline-1,3-diamine, reference compound]
P. berghei
  100% curative oral dose against P. berghei: <0.1 to 4 mg/kg
[1]
  dose producing deaths / oral lethal dose: less than 2 mg/kg
[2]; 40 mg/kg/day
  # Mice Alive Day 30/Total: 4/5
  # Mice Dead/Day Died: 1/17
[2]; 20-1.25 mg/kg/day
  # Mice Alive Day 30/Total: 5/5
  # Mice Dead/Day Died: none
[3]
  IC50: 0.0191 ng/mL (≈ 0.0535 nM)
Plasmodium berghei; 20 mg/kg/day
  # Mice Alive Day 31/Total: 5/7
Plasmodium berghei; 40 mg/kg/day
  # Mice Alive Day 31/Total: 0/7
Plasmodium berghei; 10-2.5 mg/kg/day
  # Mice Alive Day 31/Total: 7/7
  # Mice Dead/Day Died: none
[4]
  IC50: 1.22 ng/mL (≈ 3.41 nM)
[5]
  subcutaneous LD50: less than 20 mg/kg
[6]; rats n=4, single intragastric 25 mg/kg in 1% CMC suspension
  Deaths: 0/4
[6]; rats n=4, single intragastric 50 mg/kg in 1% CMC suspension
  Deaths: 0/4
[6]; rats n=4, single intragastric 100 mg/kg in 1% CMC suspension
  Deaths: 0/4
[6]; rats n=4, single intragastric 200 mg/kg in 1% CMC suspension
  Deaths: 1/4
[6]; rats n=4, single intragastric 400 mg/kg in 1% CMC suspension
  Deaths: 3/4
[6]; 200 mg/kg, fourth cell after Deaths (day uncertain)
  Day of Death: number of deaths: 1
[6]; 400 mg/kg, second cell after Deaths (day uncertain)
  Day of Death: number of deaths: 1
[6]; 400 mg/kg, third cell after Deaths (day uncertain)
  Day of Death: number of deaths: 2
P. falciparum
  IC50 against P. falciparum in vitro: ~0.01 ng/mL (≈ 0.028 nM)
[7]
  IC50: 0.357 ng/mL (≈ 0.999 nM)
[8]
  IC50: 0.445 ng/mL (≈ 1.25 nM)
[9]
  solubility: sparingly soluble

## CCN(CC)c1nc(N(CC)CC)c2c(ccc3c2ccn3Cc2ccccc2C(F)(F)F)n1 [Compound 5, 1,3-bis-(diethylamino)-7-(2-trifluromethyl)benzyl-7H-pyrrolo[3,2-f]quinazoline]
[2]; Thompson test
  oral dose range giving 100% cure against P. berghei: 10 to 80 mg/kg
[2]; 160 mg/kg/day
  # Mice Alive Day 30/Total: 4/8
[2]; 80-10 mg/kg/day
  # Mice Alive Day 30/Total: 8/8
  # Mice Dead/Day Died: none
[3]
  IC50: 46 ng/mL (≈ 98 nM)
[10]
  in vitro activity relative to lead compound 1: over ten thousand fold less active
[8]
  IC50: 104 ng/mL (≈ 222 nM)
